Results reported in patent publication US7307071B2, “RAF-MEK-ERK pathway inhibitors to treat cancer” (Onyx Pharmaceuticals, Inc, priority 2001, dated 2007).

Columns and labels:
[1] = test system: all four cell lines: Ba/F3, P210 WT, P210 T315I, P210 E255K; assay: Cell proliferation (cell viability) by trypan blue dye exclusion; type: cell-based, mouse; conditions: FIG. 4, 3 experiments, read-out: IC50 for inhibition of cell proliferation
Protocol: Briefly, cell culture methods were as follows. […] Cell proliferation assays were performed as follows.

[2] = test system: phospho-ERK in Ba/F3 cells expressing Bcr-Abl imatinib resistant mutants E255K and T315I; assay: ERK phosphorylation, Western blot with phospho-ERK antibody; type: cell-based, mouse; conditions: FIG. 5
Protocol: (§1) The experiment was conducted as follows. On day 1, 2×10^6 cells were plated in a 6 well plate in medium containing 10% serum, and on day 2 the cells were treated with the relevant compound dissolved in DMSO. The final DMSO concentration was 0.2%. Next, the cells were spun down, and washed once with 2 ml of ice-cold phosphate buffered saline, and then lysed with […] buffer. Next, 50 ul of cell lysates was electrophoresed in 10% Tris-Glycine gels, followed by treatment with a 1° antibody which was a phospho-ERK polyclonal rabbit antibody used at 1:1000 dilution. It was obtained from Cell Signaling. The 1° was followed by a 2° antibody which was goat anti-rabbit horse radish peroxidase antibody, and it was used at a dilution of 1:1000. Lastly, Westerns were developed with an ECL kit obtained from Amersham.

[3] = test system: phospho-ERK in Ba/F3 cells expressing wild type Bcr-Abl; assay: as above; type: cell-based, mouse; conditions: FIG. 5
Protocol: as §1

[4] = test system: chronic myelogenous leukemia; conditions: CML patients, remissions achieved during blast phase; cited from earlier work

Structure (SMILES) | IC50 [1] | effect on phospho-ERK levels [2] | effect on phospho-ERK levels [3] | time to relapse after remission [4]
CNC(=O)c1cc(Oc2ccc(NC(=O)Nc3ccc(Cl)c(C(F)(F)F)c3)cc2)ccn1 [BAY 43-9006] | 4 to 8 µM | decrease in phospho-ERK levels | decrease in phospho-ERK levels | 
Cc1ccc(NC(=O)c2ccc(CN3CCN(C)CC3)cc2)cc1Nc1nccc(-c2cccnc2)n1 [imatinib] |  |  |  | 2-6 months
